Several values for one entry are separate records, joined by “and”; a condition that tells them apart may be missing. Equal values may be shown once. Read-outs that look alike come from different tables or passages of the source.
Assays:
NTCP = molecular target: T1, NTCP (Homo sapiens, UniProt Q14973); assay: Inhibition of [^3H]taurocholate uptake in CHO cells expressing NTCP (competition assay); format: cell-based
T1 construct: host or cells: Chinese Hamster Ovary (CHO) cells
T1 sequence (Q14973 1-349): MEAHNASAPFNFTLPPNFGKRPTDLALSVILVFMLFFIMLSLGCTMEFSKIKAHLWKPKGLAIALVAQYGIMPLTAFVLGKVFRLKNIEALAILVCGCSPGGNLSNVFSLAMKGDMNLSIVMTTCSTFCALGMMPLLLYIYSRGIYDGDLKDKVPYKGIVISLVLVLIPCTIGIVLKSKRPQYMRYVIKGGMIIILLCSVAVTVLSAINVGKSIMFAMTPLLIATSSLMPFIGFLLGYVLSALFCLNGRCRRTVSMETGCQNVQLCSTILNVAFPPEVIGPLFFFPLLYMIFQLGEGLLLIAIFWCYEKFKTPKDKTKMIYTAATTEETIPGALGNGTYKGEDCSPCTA
Description: Maintenance of these cell cultures was described earlier.

BSEP = BSEP (Homo sapiens, UniProt O95342); assay: Inhibition of [^3H]TC uptake in BSEP membrane vesicles (efflux assay)
Method: All dosing was performed in triplicate. The plates were suspended in a 37°C water bath 1 minute before the incubation. Incubation was started by adding 10 μL of the ATP solution or buffer solution (negative control). Each well contained a final volume of 30 μL and the plates were incubated for 10 minutes at 37°C.
The contents of each well were pipetted in a glass fiber filter plate (Multiscreen HTS plates; Merck Millipore) and washed 3 times with 200 μL ice-cold buffer solution. Finally, 100 μL 0.1 M NaOH was added: lysis of the vesicles took place for 10 minutes at room temperature. An aliquot was used for liquid scintillation counting.

OATP1B1 [1] = molecular target: T2, OATP1B1 (Homo sapiens, UniProt Q9Y6L6)
T2 sequence (Q9Y6L6 1-691): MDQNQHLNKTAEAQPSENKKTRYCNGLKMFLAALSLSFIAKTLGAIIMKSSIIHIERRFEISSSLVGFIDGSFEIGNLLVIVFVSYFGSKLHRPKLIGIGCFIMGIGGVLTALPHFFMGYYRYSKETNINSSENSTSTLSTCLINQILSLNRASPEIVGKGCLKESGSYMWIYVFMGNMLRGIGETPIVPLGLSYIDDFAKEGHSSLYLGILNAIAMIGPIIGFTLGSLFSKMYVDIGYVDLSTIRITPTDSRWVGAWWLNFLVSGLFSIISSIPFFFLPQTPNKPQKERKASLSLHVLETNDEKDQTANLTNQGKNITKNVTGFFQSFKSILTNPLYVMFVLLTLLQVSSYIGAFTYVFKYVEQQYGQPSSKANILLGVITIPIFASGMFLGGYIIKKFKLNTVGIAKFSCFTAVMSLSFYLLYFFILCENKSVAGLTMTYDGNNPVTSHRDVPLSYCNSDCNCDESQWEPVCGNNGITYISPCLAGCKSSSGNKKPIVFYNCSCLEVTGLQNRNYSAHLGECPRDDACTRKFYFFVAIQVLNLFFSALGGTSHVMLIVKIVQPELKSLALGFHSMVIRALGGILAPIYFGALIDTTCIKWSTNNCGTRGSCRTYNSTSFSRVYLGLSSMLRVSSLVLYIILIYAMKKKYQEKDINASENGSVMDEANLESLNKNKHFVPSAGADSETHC
Method: (§2) Chinese Hamster Ovary (CHO) and Human Embryonic Kidney (HEK) cells expressing NTCP and OATP1B1, respectively (Solvo Biotechnologies), were used.
(§3) Cells were seeded in 24-well plates at 400,000 cells/well. […] All dosing solutions were formulated in the washing buffer and dosing was executed in triplicate. The incubation was stopped by placing the plates on ice and adding 1 mL ice-cold 1% BSA HBSS-solution. The supernatant was aspirated and the cells were washed twice with 2 mL ice-cold HBSS-solution. NaOH (250 μl, 0.1 M) was added to lyse the cells and the plates were shaken (15 minutes, 37°C). Aliquots of this lysate were subjected to liquid scintillation counting (TriCarb 2900 TR; Perkin Elmer) and protein determination with a BCA-assay (ThermoFisher Scientific).

[2] = LogD determination of the tracers; format: physicochemical
Method: (§1) The logD-value, stability (in formulation for use and mouse serum), and identity of the tracer were assessed as described earlier. Radiochemical purity and percentage ^18F-labeling of precursor were determined by radio-TLC (silica gel TLC; with 10% MeOH in CH2Cl2 and 4 : 1 AcN : H2O, resp.).

[3] = Stability of the tracer in formulation for use; format: physicochemical
Method: as §1

[4] = Stability of the tracer in mouse serum; format: in vitro ADME
Method: as §1

wild-type FVB-mice = assay: Dynamic PET/CT imaging of hepatobiliary transport in wild-type FVB-mice; format: in vivo, mouse; conditions: for Time-to-peak liver / AUC GBI (gallbladder and intestines) / AUC liver (time-activity curve) / Max% ID GBI (gallbladder and intestines) / Max% ID liver: 9 MBq i.v., 1 hour PET-scan; for AUC GBI (gallbladder and intestines) / AUC liver (time-activity curve) / Max% ID GBI (gallbladder and intestines) / Max% ID liver: normalized for 20 g mouse
Method: The in vivo transport characteristics of the ^18F labeled bile acids were evaluated in wild-type FVB-mice (female, 5 w). The tracer described earlier, 3β-[^18F]FCA, was also included as a reference standard. Imaging was performed with a PET/CT (FLEX Triumph II small animal PET/CT-scanner; axial field of view: 7.5 cm; 1.3 mm spatial resolution; TriFoil Imaging). For each tracer, three animals were used. The animals were housed and handled in accordance with the European Ethics Committee guidelines and the experiments were approved by the Animal Experimental Ethical Committee of Ghent University (ECD 15/69).
Food and water were provided ad libitum, but the animals were fasted overnight before a PET/CT-scan. They were anesthetized with 1.5 v : v% isoflurane in O2 and placed on a heated bed. To allow injection of the tracer, a polyethylene intravenous line was inserted in the lateral tail vein and fixed. After the animals were transferred to the scanner animal bed, a 1 hour PET-scan was started and 9 MBq tracer was injected directly after starting the scan. Following this PET-scan, 9 MBq [^18F]FDG was injected and twenty minutes later, a second PET-scan with a 20-minute acquisition time was started.
All PET-scans were obtained in list-mode and were iteratively reconstructed (50 iterations). The 1-hour scan was reconstructed in the following frames: 8 × 15 s; 16 × 30 s; 10 × 60 s; 20 × 120 s. For presentation purposes, Maximum Intensity Projection PET/CT images were generated in Amide software. The data were analyzed using Pmod software v3.405 (PMOD Technologies): Regions Of Interest (ROIs) were drawn manually over the liver, gallbladder, and intestines. On the static [^18F]FDG scan, the left ventricle was delineated and this ROI was pasted on the dynamic scan to obtain an image-derived arterial blood concentration. The uptake of radioactivity in liver, gallbladder, and intestines was expressed as a percentage of the injected dose (% ID) and normalized for the weight of a 20 g mouse. The % ID in these organs was monitored in function of time to obtain time-activity curves (TACs). Biliary clearance of the tracers was determined with equation 2 from Ghibellini et al. [14](2) Biliary clearance=cumulative amount of tracer in gallbladder&intestines/AUC blood concentration0→60 min.
The Area Under the Curve (AUC), % ID, and time-to-peak values of the TACs were determined in GraphPad Prism v3.00 Software. The obtained parameters of the different ^18F labeled bile acids were compared to 3β-[^18F]FCA-values in SPSS Statistics 23 Software. Differences between two groups were analyzed with the nonparametric Mann–Whitney U test. A p value ≤ 0.05 was considered significant.

OATP1B1 [5] = molecular target: T2, OATP1B1; assay: cell-based
Method: as §2, §3

[6] = wild-type mice, i.v., after 1 hour
[7] = wild-type mice, cumulative amount in gallbladder & intestines / AUC blood concentration 0-60 min, n = 3

Chain of BSEP (O95342 whole entry, species assumed): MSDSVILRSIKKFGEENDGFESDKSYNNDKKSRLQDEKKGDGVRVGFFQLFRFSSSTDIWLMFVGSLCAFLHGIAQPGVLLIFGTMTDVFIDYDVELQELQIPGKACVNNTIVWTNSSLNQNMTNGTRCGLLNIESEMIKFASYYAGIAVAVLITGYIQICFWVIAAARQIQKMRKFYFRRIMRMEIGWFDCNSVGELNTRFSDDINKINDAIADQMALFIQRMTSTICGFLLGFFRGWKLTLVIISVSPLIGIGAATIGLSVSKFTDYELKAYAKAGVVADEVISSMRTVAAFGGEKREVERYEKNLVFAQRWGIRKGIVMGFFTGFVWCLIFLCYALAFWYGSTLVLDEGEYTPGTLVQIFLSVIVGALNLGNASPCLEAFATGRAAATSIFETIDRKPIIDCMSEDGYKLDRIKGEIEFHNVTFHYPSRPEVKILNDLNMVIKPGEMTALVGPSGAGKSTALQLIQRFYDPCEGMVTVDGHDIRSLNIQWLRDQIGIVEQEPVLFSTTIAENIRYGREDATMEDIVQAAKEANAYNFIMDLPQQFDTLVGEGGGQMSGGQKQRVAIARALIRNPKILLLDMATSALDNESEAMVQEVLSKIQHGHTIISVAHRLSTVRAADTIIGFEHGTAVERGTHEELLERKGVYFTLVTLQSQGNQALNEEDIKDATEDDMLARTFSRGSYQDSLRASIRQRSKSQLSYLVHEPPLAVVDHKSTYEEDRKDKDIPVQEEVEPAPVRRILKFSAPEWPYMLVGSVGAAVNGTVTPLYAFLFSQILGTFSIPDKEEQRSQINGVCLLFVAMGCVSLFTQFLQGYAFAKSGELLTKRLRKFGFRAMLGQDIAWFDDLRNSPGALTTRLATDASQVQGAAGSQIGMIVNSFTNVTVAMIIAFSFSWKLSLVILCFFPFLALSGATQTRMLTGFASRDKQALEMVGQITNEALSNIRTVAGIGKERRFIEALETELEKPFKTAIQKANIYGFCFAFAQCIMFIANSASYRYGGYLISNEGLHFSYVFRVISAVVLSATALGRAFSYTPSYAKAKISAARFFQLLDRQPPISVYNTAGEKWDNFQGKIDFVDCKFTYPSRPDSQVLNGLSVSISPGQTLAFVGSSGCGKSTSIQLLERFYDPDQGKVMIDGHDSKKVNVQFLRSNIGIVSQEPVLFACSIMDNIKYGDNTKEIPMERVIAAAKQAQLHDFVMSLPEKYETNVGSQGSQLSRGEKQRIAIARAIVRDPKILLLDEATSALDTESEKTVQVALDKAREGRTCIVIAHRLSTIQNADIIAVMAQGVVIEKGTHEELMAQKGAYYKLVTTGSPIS

Row | SMILES | Time-to-peak liver (wild-type FVB-mice; wild-type mice, n = 3) | AUC GBI (gallbladder and intestines) (wild-type FVB-mice; wild-type mice, n = 3) | AUC liver (time-activity curve) (wild-type FVB-mice; wild-type mice, n = 3) | Max% ID GBI (gallbladder and intestines) (wild-type FVB-mice; wild-type mice, n = 3) | Max% ID liver (wild-type FVB-mice; wild-type mice, n = 3) | Organ uptake after intravenous injection (wild-type FVB-mice; wild-type mice, PET) | Injected activity found in gallbladder and intestines after 1 hour (wild-type FVB-mice; [6]) | Biliary clearance (wild-type FVB-mice; [7]) | other results
1 | C[C@H](CCC(=O)O)[C@H]1CC[C@H]2[C@@H]3[C@H](O)C[C@@H]4C[C@@H](F)CC[C@]4(C)[C@H]3CC[C@]12C [3βFCDCA] | – | – | – | – | – | – | – | – | Ki (NTCP; 1 μM [^3H]TC, 15 min 37°C, Cheng-Prusoff from IC50 and Km, mean ± SD n = 3): 0.91 ± 0.02 µM; Ki (BSEP): 48.2 ± 3.94 µM; Ki (OATP1B1 [1]): 0.64 ± 0.07 µM
2 | C[C@H](CCC(=O)O)[C@H]1CC[C@H]2[C@@H]3[C@H](O)C[C@@H]4C[C@@H]([18F])CC[C@]4(C)[C@H]3CC[C@]12C [3β-[^18F]FCDCA, 3β-[^18F]fluorochenodeoxycholic acid] | – | – | – | – | – | – | – | – | logD [2]: 1.42 ± 0.16; Stability in its formulation [3]: stable; Stability in mouse serum [4]: stable; Biliary clearance (wild-type FVB-mice; female, FVB, mouse, in vivo, iv, 9 MBq): 0.18 ± 0.04^∗ mL/min; Injected activity found in gallbladder and intestines after 1 hour (wild-type FVB-mice; female, FVB, mouse, in vivo, iv, 1 h): 60%; Organ uptake after intravenous injection (wild-type FVB-mice; mouse, in vivo, iv): exclusive hepatic uptake
3 | C[C@H](CCC(=O)O)[C@H]1CC[C@H]2[C@@H]3[C@H](O)C[C@@H]4C[C@H](O)CC[C@]4(C)[C@H]3C[C@H](O)[C@]12C [CA, Cholic acid] | – | – | – | – | – | – | – | – | Ki (OATP1B1 [5]): 42.7 ± 0.16 µM
4 | C[C@H](CCC(=O)NCCS(=O)(=O)O)[C@H]1CC[C@H]2[C@@H]3[C@H](O)C[C@@H]4C[C@H](O)CC[C@]4(C)[C@H]3C[C@H](O)[C@]12C [[^3H]TC, [^3H]taurocholate, reference compound] | – | – | – | – | – | – | – | – | Vmax of substrate uptake (NTCP; 0–150 μM, 10 min 37°C): 200.4 ± 9.77 pmol/min·mg protein; Km (NTCP; 0–150 μM, 10 min 37°C, read-out: Km (Michaelis-Menten) of substrate uptake): 15.3 ± 2.46 µM
5 | C[C@H](CCC(=O)O)[C@H]1CC[C@H]2[C@@H]3[C@H](O)C[C@@H]4C[C@H]([18F])CC[C@]4(C)[C@H]3C[C@H](O)[C@]12C [3α-[^18F]FCA, 3α-[^18F]fluorocholic acid] | 3.33 ± 0.62 min and 3.33 ± 0.62^∗ min | 4184 ± 109^∗ % ID·min | 1065 ± 171^∗ % ID·min | 88.70 ± 2.38% | 58.58 ± 3.19% | exclusive hepatic uptake | approx. 80% | 0.49 ± 0.10 mL/min | logD ([2]; n = 3, mean ± SD, read-out: LogD): 0.92 ± 0.17; Stability in its formulation ([3]; formulation for use (phosphate buffered saline)): stable; Stability in mouse serum ([4]; mouse serum): stable
6 | C[C@H](CCC(=O)O)[C@H]1CC[C@H]2[C@@H]3[C@H](O)C[C@@H]4C[C@@H]([18F])CC[C@]4(C)[C@H]3C[C@H](O)[C@]12C [3β-[^18F]FCA, 3β-[^18F]fluorocholic acid, reference compound] | 5.33 ± 0.24 min | 3499 ± 340 % ID·min | 1785 ± 194 % ID·min | 83.44 ± 9.27% | 63.80 ± 2.61% | exclusive hepatic uptake | approx. 80% | 0.46 ± 0.08 mL/min | –

Source: PMC5941726, “Evaluating Hepatobiliary Transport with ^18F-Labeled Bile Acids: The Effect of Radiolabel Position and Bile Acid Structure on Radiosynthesis and In Vitro and In Vivo Performance” (Contrast Media & Molecular Imaging, 2018)
